Source: patent US10793571B2, “Uses of diazepane derivatives” (Dana-Farber Cancer Institute, Inc., priority 2014, dated 2020)
pIC50, pKd: −log10 of the molar value.

Tests used:
[1] = target: T1, BRD4.1 (Homo sapiens, UniProt O60885); assay: Acetyl-histone binding assay (AlphaScreen), percent inhibition of BRD4.1; conditions: BRD4.1, 2.5 μM compound concentration, in vitro; read-out: % INHIB (at 2.5 uM)
T1 construct: final concentrations of BRD4.1 at 80 nM; His tag (inferred from the Ni-coated acceptor bead)
Protocol: (§1) Assays were performed with minor modifications from the manufacturer's protocol (PerkinElmer, USA). All reagents were diluted in 50 mM HEPES, 150 mM NaCl, 0.1% w/v BSA, and 0.01% w/v Tween^□ 20 at pH 7.5 and allowed to equilibrate to room temperature prior to addition to plates. After addition of Alpha beads to master solutions, all subsequent steps were performed in low light conditions. […] Addition to wells was performed with either a multichannel pipet (for optimization experiments) or a Biotek EL406 liquid handler. After a 1000-rpm spin-down for 1 minute, 100 nL of the solutions of the compounds of the invention from stock plates were added by pin transfer using a Janus Workstation (PerkinElmer, USA). The streptavidin-coated donor beads (25 μg/ml final) were added as with previous solution in a 2x, 10 μL volume. Following this addition, the plates were sealed with foil to block light exposure and to prevent evaporation. The plates were spun down again at 1000 rpm for 1 minute. Next, the plates were incubated in the room with the plate reader (for temperature equilibration) for 1.5 hour prior to reading the assay.

[2] = target: T2, BRD4 (Homo sapiens, UniProt O60885); assay: BRD4 IC50 (first BRD4 value listed in Table 2); type: binding; conditions: first BRD4 IC50 listed per compound
Protocol: as §1

[3] = target: BRDT (Homo sapiens, UniProt Q58F21); assay: BRDT IC50; type: binding
[4] = target: T2, BRD4; assay: BRD4 IC50 (second BRD4 value listed in Table 2); type: binding; conditions: second BRD4 IC50 listed per compound
[5] = tested on: MV411; assay: Cellular assay (ATPlite cell viability), MV411; type: cell-based; conditions: MV411 cell line
Protocol: (§2) The compounds of the invention are also evaluated in the BRD4 dependant cell line for the cellular activity to generate cellular IC50 values.
(§3) Cells (e.g., BRD4 dependant cells) were counted and adjusted to 60,000 cells/mL. Using a Biotek EL406, 50 μL, of the cells in media were distributed into 384 well white plates from Thermo. Immediately after plating, compounds of the invention in DMSO were distributed to plates. For large plate sets, cells were returned to a 37° C. incubator while not in use. The compounds were added to plates using a 100 nL 384 well pin transfer manifold on a Janus workstation. Stocks were arrayed in 10 point quadruplicate dose response in DMSO stock in 384-well Greiner compound plates. After addition of the compounds, plates were incubated for three days in a 37° C. incubator. Cell viability was read out using ATPlite from Perkin Elmer. Plates were removed from the incubator and brought to room temperature prior to use. Lyophilized powder was resuspended in lysis buffer and diluted 1:2 with DI water. 25 μL of this solution was added to each well using the Biotek liquid handler. Plates were sealed with adherent aluminum seals prior to vortexing and spinning down at 1000 g for 1 minute. Plates were incubated for 15 minutes at room temperature before signal was read on an Envision Plate Reader.

[6] = tested on: NOMO1; assay: Cellular assay (ATPlite cell viability), NOMO1; type: cell-based; conditions: NOMO1 cell line
Protocol: as §2, §3

[7] = tested on: Kasumi-1; assay: Cellular assay (ATPlite cell viability), Kasumi-1; type: cell-based; conditions: Kasumi-1 cell line
Protocol: as §2, §3

[8] = tested on: TF-1; assay: Cellular assay (ATPlite cell viability), TF-1; type: cell-based; conditions: TF-1 cell line
Protocol: as §2, §3

[9] = tested on: MOLM-13; assay: Cellular assay (ATPlite cell viability), MOLM-13; type: cell-based; conditions: MOLM-13 cell line
Protocol: as §2, §3

[10] = tested on: 797; assay: Cellular assay (ATPlite cell viability), 797; type: cell-based; conditions: 797 cell line
Protocol: as §2, §3

[11] = target: T3, CREBBP (Homo sapiens, UniProt Q92793); assay: CREBBP IC50; type: binding
[12] = target: T2, BRD4; assay: BRD4 KD (DiscoveRx); type: binding
[13] = target: T3, CREBBP; assay: CREBBP KD (DiscoveRx); type: binding
[14] = target: LRRK2 (Homo sapiens, UniProt Q5S007); assay: LRRK2 IC50; type: biochemical
LRRK2, sequence (Q5S007 whole entry): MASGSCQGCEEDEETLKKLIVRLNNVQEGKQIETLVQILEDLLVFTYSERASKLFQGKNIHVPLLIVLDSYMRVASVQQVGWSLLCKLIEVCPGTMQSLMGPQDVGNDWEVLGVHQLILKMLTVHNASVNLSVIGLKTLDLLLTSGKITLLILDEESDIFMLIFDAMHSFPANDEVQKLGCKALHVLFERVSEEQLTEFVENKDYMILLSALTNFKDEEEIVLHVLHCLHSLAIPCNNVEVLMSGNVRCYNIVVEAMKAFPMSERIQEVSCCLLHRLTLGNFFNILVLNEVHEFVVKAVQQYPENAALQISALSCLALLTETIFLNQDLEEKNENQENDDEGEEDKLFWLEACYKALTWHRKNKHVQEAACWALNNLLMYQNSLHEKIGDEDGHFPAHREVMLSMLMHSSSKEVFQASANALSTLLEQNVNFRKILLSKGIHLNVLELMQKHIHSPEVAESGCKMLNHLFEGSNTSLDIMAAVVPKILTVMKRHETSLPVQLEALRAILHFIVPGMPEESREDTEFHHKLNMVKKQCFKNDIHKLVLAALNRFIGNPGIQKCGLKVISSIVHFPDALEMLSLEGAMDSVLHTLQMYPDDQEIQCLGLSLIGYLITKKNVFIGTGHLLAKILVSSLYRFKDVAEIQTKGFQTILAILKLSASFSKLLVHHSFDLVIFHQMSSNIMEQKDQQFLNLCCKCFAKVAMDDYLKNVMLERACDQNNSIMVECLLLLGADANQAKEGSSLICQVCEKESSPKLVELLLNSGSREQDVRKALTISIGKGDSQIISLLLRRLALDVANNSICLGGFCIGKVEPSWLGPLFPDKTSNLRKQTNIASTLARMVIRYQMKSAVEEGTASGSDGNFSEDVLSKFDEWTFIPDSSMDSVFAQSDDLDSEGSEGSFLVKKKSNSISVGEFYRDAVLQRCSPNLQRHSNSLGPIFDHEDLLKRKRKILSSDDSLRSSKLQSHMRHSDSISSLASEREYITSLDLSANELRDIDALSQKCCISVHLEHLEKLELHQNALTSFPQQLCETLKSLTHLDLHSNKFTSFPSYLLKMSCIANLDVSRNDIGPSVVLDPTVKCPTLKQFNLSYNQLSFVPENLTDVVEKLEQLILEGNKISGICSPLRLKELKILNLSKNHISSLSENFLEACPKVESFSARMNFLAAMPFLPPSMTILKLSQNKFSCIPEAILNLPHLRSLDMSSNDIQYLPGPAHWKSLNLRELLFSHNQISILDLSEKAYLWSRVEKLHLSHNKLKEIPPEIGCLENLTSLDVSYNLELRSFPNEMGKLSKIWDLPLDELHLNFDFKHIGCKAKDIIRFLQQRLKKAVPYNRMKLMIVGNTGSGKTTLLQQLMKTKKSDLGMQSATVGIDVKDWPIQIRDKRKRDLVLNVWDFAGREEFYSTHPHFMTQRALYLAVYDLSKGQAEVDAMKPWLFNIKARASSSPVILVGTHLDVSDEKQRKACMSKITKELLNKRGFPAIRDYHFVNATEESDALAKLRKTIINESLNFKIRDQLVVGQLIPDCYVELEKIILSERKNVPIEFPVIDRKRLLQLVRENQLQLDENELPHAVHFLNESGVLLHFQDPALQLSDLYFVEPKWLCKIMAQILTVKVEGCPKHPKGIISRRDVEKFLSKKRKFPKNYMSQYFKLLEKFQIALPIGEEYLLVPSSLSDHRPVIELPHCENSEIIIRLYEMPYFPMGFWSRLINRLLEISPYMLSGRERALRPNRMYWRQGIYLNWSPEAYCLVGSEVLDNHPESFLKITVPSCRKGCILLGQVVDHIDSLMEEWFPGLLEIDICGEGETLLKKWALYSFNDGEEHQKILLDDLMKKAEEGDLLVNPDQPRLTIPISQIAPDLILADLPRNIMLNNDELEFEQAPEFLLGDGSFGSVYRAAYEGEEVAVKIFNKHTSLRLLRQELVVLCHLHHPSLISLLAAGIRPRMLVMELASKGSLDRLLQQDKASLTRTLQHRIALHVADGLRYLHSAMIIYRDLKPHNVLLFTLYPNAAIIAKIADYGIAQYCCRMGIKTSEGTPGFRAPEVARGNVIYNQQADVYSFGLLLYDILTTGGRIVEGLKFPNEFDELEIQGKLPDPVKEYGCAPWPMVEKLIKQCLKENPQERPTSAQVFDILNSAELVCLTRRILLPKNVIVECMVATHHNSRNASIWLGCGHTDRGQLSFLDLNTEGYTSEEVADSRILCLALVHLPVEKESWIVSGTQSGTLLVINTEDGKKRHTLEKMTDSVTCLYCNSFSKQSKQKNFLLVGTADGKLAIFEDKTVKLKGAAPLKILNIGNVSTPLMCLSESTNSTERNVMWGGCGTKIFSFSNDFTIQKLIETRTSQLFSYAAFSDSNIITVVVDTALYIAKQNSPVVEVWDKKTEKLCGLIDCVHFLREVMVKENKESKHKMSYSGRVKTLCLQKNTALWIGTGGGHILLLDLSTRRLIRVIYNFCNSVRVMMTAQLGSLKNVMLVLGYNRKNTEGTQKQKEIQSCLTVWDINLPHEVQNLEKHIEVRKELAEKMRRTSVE

T3 sequence (Q92793 whole entry): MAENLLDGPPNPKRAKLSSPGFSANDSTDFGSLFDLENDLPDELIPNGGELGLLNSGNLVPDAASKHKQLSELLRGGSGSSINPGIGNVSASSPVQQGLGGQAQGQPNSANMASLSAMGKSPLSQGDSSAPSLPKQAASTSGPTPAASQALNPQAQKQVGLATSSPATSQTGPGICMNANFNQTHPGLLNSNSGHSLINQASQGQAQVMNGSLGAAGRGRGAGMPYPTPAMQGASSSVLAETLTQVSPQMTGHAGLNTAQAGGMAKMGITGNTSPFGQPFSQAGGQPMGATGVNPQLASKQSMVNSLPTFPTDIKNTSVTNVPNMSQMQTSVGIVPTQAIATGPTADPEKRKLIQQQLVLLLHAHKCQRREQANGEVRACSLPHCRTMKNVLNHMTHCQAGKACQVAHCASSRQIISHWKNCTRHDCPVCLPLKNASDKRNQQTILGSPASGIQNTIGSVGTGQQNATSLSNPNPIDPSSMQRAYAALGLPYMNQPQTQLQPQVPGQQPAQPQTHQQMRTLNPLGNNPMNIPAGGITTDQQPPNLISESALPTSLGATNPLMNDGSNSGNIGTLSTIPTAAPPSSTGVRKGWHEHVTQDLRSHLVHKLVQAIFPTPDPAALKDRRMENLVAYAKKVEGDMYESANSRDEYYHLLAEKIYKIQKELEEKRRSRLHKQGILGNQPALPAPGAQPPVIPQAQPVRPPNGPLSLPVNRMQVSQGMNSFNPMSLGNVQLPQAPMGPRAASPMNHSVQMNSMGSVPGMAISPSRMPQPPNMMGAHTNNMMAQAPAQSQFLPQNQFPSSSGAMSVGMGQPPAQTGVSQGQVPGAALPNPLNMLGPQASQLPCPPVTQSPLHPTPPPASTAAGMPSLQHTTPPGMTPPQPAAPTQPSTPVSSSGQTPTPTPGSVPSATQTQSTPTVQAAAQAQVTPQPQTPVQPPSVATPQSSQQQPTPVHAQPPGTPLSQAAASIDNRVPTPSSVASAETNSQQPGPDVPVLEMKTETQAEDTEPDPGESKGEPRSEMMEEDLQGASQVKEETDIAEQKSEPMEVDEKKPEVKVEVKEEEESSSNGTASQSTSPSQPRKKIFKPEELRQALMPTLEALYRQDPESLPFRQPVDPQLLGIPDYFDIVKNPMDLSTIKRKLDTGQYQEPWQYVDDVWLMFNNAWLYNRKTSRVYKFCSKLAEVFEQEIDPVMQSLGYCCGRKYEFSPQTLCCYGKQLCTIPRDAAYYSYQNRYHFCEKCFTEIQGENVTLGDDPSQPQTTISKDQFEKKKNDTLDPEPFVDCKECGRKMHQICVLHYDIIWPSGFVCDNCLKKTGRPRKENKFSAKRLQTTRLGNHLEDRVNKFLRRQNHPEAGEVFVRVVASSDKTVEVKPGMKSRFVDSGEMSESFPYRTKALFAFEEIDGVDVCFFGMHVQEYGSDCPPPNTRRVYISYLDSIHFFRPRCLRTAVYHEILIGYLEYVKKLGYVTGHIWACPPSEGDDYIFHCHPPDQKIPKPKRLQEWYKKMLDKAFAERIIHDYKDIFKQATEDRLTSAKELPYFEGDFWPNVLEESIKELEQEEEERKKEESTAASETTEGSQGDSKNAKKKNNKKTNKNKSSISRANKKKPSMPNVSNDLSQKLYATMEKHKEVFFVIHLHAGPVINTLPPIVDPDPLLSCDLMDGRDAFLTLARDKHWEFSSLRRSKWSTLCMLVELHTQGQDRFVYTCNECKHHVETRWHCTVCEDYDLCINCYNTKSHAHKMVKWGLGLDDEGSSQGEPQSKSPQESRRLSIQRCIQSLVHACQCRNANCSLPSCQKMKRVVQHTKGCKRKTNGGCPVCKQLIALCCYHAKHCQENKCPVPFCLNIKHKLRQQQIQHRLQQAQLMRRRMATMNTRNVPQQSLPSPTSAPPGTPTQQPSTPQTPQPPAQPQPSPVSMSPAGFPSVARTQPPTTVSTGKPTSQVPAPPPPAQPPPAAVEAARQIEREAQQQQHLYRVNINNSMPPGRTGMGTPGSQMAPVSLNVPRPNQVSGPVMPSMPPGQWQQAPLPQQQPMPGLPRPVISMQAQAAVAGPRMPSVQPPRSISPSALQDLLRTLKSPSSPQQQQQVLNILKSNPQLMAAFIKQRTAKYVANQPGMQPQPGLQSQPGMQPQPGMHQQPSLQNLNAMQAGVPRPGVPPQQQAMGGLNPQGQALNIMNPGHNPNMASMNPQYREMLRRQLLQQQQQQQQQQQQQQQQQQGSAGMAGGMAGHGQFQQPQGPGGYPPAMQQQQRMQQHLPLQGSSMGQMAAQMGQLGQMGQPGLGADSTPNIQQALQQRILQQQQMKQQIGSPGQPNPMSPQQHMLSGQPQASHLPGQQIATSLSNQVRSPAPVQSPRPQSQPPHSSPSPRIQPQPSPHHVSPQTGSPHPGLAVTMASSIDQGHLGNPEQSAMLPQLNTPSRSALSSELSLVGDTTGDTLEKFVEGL

SMILES	inhibition at 2.5 µM [1] [%]	pIC50 [2]	pIC50 [3]	pIC50 [4]	pIC50 ([5]; Homo sapiens, MV4-11)	pIC50 ([6]; Homo sapiens, NOMO-1)	pIC50 ([7]; Homo sapiens)	pIC50 ([8]; Homo sapiens)	pIC50 ([9]; Homo sapiens)	pIC50 [10]	further results
COc1cc(C(=O)N2CCC(N3CCN(C)CC3)CC2)ccc1Nc1ncc2c(n1)N(C)c1ccccc1C(=O)N2C [drawing 33]	20.5	–	–	–	–	–	–	–	–	–	–
CCOc1cc(N2CCC(O)CC2)ccc1Nc1ncc2c(n1)N(C)c1ccccc1C(=O)N2C	29.5	–	–	–	–	–	–	–	–	–	–
CN1C(=O)c2ccccc2N(C)c2nc(Nc3ccc(C(=O)O)cc3OC3CCCC3)ncc21 [Compound 2-043]	–	6.14	5.56	5.82	< 5.00	5.17	5.32	5.15	5.18	5.75	–
CN1C(=O)c2ccccc2N(C)c2nc(Nc3ccc(S(N)(=O)=O)cc3)ncc21 [Compound 2-075]	–	–	5.54	5.74	6.60	5.60	7.02	5.67	6.36	7.47	pIC50 ([2]; unit nm [sic]): 6.01; pIC50 [11]: 6.37; pKd [12]: 6.74; pKd [13]: 7.64
C[C@@H](Oc1cc(-n2cnc3ccc(CN4CCN(C)CC4)cc32)sc1C(N)=O)c1ccccc1C(F)(F)F [GSK461364, reference compound]	–	< 4.30	–	–	8.15	8.23	8.11	–	8.16	8.10	TF-1 IC50 ([8]; result in words): poor convergence
COc1cc(C(=O)N2CCC(N3CCN(C)CC3)CC2)ccc1Nc1ncc2c(n1)N(C)c1ccccc1C(=O)N2C [Compound 1-226]	–	–	–	–	6.26	5.70	–	5.47	5.90	5.88	pIC50 [14]: 8.15
CCN(c1ncc2c(n1)N(C)c1ccccc1C(=O)N2C)c1ccc(C(=O)N2CCC(N3CCN(C)CC3)CC2)cc1OC [Compound 2-041]	–	8.69	5.02	5.24	5.46	5.08	5.63	5.14	5.24	5.15	pIC50 [14]: 5.52
CCN1CCN(Cc2ccc(Nc3ncc4c(n3)N(C)c3ccccc3C(=O)N4C)cc2C(F)(F)F)CC1	45.8	–	–	–	–	–	–	–	–	–	–
CN1C(=O)c2ccccc2N(C)c2nc(Nc3ccc(N4CCC(O)CC4)cc3)ncc21	50.8	–	–	–	–	–	–	–	–	–	–
COc1cc(C(=O)N2CCC(N3CCN(C)CC3)CC2)ccc1N(C)c1ncc2c(n1)N(C)c1ccccc1C(=O)N2C [Compound 1-284]	–	5.70	5.26	5.59	5.61	5.07	5.73	5.21	5.33	5.13	pIC50 [14]: 5.40
COc1cc(N2CCN(C)CC2)ccc1Nc1ncc2c(n1)N(C)c1ccccc1C(=O)N2C	36.1	–	–	–	–	–	–	–	–	–	–
Cc1sc2c(c1C)C(c1ccc(Cl)cc1)=N[C@@H](CC(=O)OC(C)(C)C)c1nnc(C)n1-2 [JQ1, reference compound]	–	–	–	–	–	–	–	–	–	7.04	pIC50 [5]: 7.18; pIC50 [6]: 6.76; pIC50 [7]: 7.31; pIC50 [8]: 3.96; pIC50 [9]: 7.05
